Experiments:
[1] = tested on: LPS-induced IL-8 release in d-U937 cells; assay: LPS-induced IL-8 release in d-U937 cells; type: cell-based; conditions: Homo sapiens, dU937, read-out: LPS Induced Release of Cytokine in d-937 Cells IL-8 IC50
Procedure, shortened: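 Sandwich ELISA of culture supernatant gives TNFα and IL-8 levels after a 4 hr challenge with LPS (0.1 μg/mL, E. coli O111:B4). Before stimulation, macrophage-like U937 cells, obtained by 48–72 hr in PMA at 100 ng/mL, sit with compound for 2 hr. Relative EC50 is derived from concentration-response data.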

[2] = tested on: LPS-induced TNFα release in d-U937 cells; assay: LPS-induced TNFα release in d-U937 cells; type: cell-based; conditions: Homo sapiens, dU937, relative to 10 μg/mL BIRB796, read-out: LPS Induced Release of Cytokine in d-937 Cells TNFα REC50
Procedure, shortened: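 PMA-differentiated (100 ng/mL, 48–72 hr) U937 cells pre-incubated with compound 2 hr, then stimulated with LPS (0.1 μg/mL, E. coli O111:B4) for 4 hr. Supernatant TNFα and IL-8 measured by sandwich ELISA; inhibition versus vehicle control, REC50 from concentration-response curve.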

[3] = tested on: Poly I:C-induced ICAM-1 expression in BEAS2B cells; assay: Poly I:C-induced ICAM-1 expression in BEAS2B cells; type: cell-based; conditions: Homo sapiens, BEAS-2B, read-out: Poly IC induced ICAM1 in BEAS2B IC50
Procedure, shortened: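 Cell-based ELISA read at 450 nm minus 655 nm, divided by crystal violet OD595 to normalize for cell number, gave ICAM-1 levels. Readout was taken 18 hr after poly I:C (1 μg/mL, Oligofectamine) transfection of human bronchial BEAS2B cells pretreated 2 hr with test compound.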

GSK3α = GSK3α (Homo sapiens (Human), UniProt P49840); assay: GSK 3α enzyme inhibition (FRET, Z-LYTE); type: biochemical
Sequence of GSK3α (P49840 whole entry): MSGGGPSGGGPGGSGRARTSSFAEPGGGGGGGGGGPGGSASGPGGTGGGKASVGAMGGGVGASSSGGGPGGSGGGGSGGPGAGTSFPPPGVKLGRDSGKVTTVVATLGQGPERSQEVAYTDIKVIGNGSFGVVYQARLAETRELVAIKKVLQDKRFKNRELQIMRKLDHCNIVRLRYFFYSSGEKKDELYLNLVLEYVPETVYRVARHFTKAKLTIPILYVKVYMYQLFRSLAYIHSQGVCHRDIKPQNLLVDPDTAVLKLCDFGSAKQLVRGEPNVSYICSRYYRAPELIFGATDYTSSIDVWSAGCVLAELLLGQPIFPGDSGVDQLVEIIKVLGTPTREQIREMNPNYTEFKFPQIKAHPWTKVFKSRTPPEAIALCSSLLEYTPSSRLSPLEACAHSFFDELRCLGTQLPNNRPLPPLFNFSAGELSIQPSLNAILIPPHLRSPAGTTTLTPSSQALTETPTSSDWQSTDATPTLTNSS
Procedure, shortened: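 Phosphorylation was read as the donor (coumarin) to acceptor (fluorescein) ratio after a 1 hr protease step destroying non-phosphorylated peptide. Before this, compound (4–0.004 μg/mL stocks) sat 2 hr at RT with GSK3α (500 ng/mL stock), followed by 1 hr kinase reaction with 8 μM peptide and 40 μM ATP stocks.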

Syk = Syk (Homo sapiens (Human), UniProt P43405); assay: Syk enzyme inhibition (FRET, Z-LYTE); type: biochemical
Procedure, shortened: (§1)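 Z-LYTE FRET kinase assay: enzyme (3000 or 2000 ng/mL stock, respectively) preincubated 2 h at RT with compound (4–0.004 μg/mL stocks), then FRET peptide plus ATP (800 μM stock for c-Src, 60 μM for Syk) added for 1 h. Protease development 1 h; phosphorylation from coumarin/fluorescein emission ratio.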

p38 MAPKα = p38 MAPKα (Homo sapiens (Human), UniProt Q16539); assay: p38 MAPKα enzyme inhibition (FRET, Z-LYTE); type: biochemical
Sequence of p38 MAPKα (Q16539 whole entry): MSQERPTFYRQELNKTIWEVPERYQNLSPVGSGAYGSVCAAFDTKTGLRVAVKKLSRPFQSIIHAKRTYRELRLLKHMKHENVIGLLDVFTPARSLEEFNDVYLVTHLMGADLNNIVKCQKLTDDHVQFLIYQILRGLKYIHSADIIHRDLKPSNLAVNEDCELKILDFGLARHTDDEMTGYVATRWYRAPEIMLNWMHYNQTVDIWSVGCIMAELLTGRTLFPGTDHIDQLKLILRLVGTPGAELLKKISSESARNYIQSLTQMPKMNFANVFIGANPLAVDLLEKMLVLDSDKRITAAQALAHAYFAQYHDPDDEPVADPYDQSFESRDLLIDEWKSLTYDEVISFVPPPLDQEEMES

d-U937 cells = assay: Cell viability: MTT assay; type: cell-based, human; conditions: 1 μg/mL
Procedure, shortened: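 MTT read-out (1 h, absorbance 550 nm) on d-U937 cells after pre-incubation with 1 or 10 μg/mL compound under two regimes: 4 h, 5% FCS, or 24 h, 10% FCS RPMI1640. Values are percent loss of viability relative to vehicle (0.5% DMSO), so increases are reported as negative.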

cSrc = cSrc (Homo sapiens (Human), UniProt P12931); assay: c-Src enzyme inhibition (FRET, Z-LYTE); type: biochemical
Sequence of cSrc (P12931 whole entry, looked up): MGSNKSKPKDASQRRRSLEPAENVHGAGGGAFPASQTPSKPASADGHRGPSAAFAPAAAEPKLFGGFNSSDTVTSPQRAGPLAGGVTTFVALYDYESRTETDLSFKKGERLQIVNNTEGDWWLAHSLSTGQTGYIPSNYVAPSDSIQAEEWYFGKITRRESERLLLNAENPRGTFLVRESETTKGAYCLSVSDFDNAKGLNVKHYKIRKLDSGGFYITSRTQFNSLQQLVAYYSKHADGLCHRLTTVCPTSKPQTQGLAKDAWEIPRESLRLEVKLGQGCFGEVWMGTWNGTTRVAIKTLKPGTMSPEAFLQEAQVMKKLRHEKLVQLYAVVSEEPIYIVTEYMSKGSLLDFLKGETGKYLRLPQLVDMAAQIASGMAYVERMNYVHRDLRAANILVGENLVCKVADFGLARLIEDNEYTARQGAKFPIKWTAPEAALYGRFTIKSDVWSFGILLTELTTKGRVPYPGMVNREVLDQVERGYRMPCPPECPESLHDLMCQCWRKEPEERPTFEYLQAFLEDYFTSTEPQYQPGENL
Procedure, shortened: as §1

`CC(C)(C)c1cc(NC(=O)Nc2ccc(Oc3ccnc(Nc4ccc5c(c4)CS(=O)(=O)C5)n3)c3ccccc23)n(-c2ccc(OCCN3CCOCC3)cc2)n1` [Example 64, 1-(3-(tert-butyl)-1-(4-(2-morpholinoethoxy)phenyl)-1H-pyrazol-5-yl)-3-(4-((2-((2,2-dioxido-1,3-dihydrobenzo[c]thiophen-5-yl)amino)pyrimidin-4-yl)oxy)naphthalen-1-yl)urea] gave an IC50 [1] of 1.3 nM, an EC50 [2] of 1.1 nM and an IC50 [3] of 0.01 nM. The IC50 (GSK3α) was 437 nM, the IC50 (Syk) was 20 nM and the IC50 (p38 MAPKα) was 67 nM. For the same compound, the “MTT Assay Cell viability at time point in d-U937 cells 4 h” value (d-U937 cells) was “−ve (−ve and +ve indicate that the value is below and above respectively, the no significant effect threshold, defined as 30% inhibition at 1 μg/mL at the time point indicated.)”, the “MTT Assay Cell viability at time point in d-U937 cells 24 h” value (d-U937 cells) was “−ve (−ve and +ve indicate that the value is below and above respectively, the no significant effect threshold, defined as 30% inhibition at 1 μg/mL at the time point indicated.)” and the IC50 (cSrc) was 3 nM.

`Cc1ccc(-n2nc(C(C)(C)C)cc2NC(=O)Nc2ccc(Oc3ccnc(Nc4cccc5[nH]ccc45)n3)c3ccccc23)cc1` [Example 16] gave an IC50 [1] of 2.6 nM, an EC50 [2] of 2 nM and an IC50 [3] of 8.9 nM. For the same compound, the IC50 (GSK3α) was greater than 16100 nM, the IC50 (Syk) was 65 nM and the IC50 (p38 MAPKα) was 101 nM. For the same compound, the “MTT Assay Cell viability at time point in d-U937 cells 4 h” value (d-U937 cells) was “−ve (−ve and +ve indicate that the value is below and above respectively, the no significant effect threshold, defined as 30% inhibition at 1 μg/mL at the time point indicated.)”, the “MTT Assay Cell viability at time point in d-U937 cells 24 h” value (d-U937 cells) was “−ve (−ve and +ve indicate that the value is below and above respectively, the no significant effect threshold, defined as 30% inhibition at 1 μg/mL at the time point indicated.)” and the IC50 (cSrc) was 22 nM.

Compound `Cc1ccc(-n2nc(C(C)(C)C)cc2NC(=O)Nc2ccc(Oc3ccnc(Nc4ccc5c(c4)OCO5)n3)c3ccccc23)cc1` [Example 33, 1-(4-((2-(benzo[d][1,3]dioxol-5-ylamino)pyrimidin-4-yl)oxy)naphthalen-1-yl)-3-(3-(tert-butyl)-1-(p-tolyl)-1H-pyrazol-5-yl)urea] has an IC50 [1] of 3.3 nM, an EC50 [2] of 3.8 nM and an IC50 [3] of 2.7 nM. It also gave an IC50 (GSK3α) of 5140 nM, an IC50 (Syk) of 671 nM and an IC50 (p38 MAPKα) of 369 nM. The “MTT Assay Cell viability at time point in d-U937 cells 4 h” value (d-U937 cells) was “−ve (−ve and +ve indicate that the value is below and above respectively, the no significant effect threshold, defined as 30% inhibition at 1 μg/mL at the time point indicated.)”, the “MTT Assay Cell viability at time point in d-U937 cells 24 h” value (d-U937 cells) was “−ve (−ve and +ve indicate that the value is below and above respectively, the no significant effect threshold, defined as 30% inhibition at 1 μg/mL at the time point indicated.)” and the IC50 (cSrc) was 23 nM.

Work on `Cc1ccc(-n2nc(C(C)(C)C)cc2NC(=O)Nc2ccc(Oc3ccnc(Nc4ccc5[nH]nc(C(=O)NCCN6CCOCC6)c5c4)n3)c3ccccc23)cc1` [Example 3, 5-((4-((4-(3-(3-(tert-Butyl)-1-(p-tolyl)-1H-pyrazol-5-yl)ureido)naphthalen-1-yl)oxy)pyrimidin-2-yl)amino)-N-(2-morpholinoethyl)-1H-indazole-3-carboxamide] yielded an IC50 [1] of 34.8 nM, an EC50 [2] of 5.2 nM and an IC50 [3] of 6.8 nM. The IC50 (GSK3α) was 2330 nM, the IC50 (Syk) was 95 nM and the IC50 (p38 MAPKα) was 19 nM. The “MTT Assay Cell viability at time point in d-U937 cells 4 h” value (d-U937 cells) was “−ve (−ve and +ve indicate that the value is below and above respectively, the no significant effect threshold, defined as 30% inhibition at 1 μg/mL at the time point indicated.)”, the “MTT Assay Cell viability at time point in d-U937 cells 24 h” value (d-U937 cells) was “−ve (−ve and +ve indicate that the value is below and above respectively, the no significant effect threshold, defined as 30% inhibition at 1 μg/mL at the time point indicated.)” and the IC50 (cSrc) was 6 nM.
